Consider six compounds from PubChem BioAssay AID1919013 (Molecular Pharmacology Branch, DTP, NCI, 2023).

In general, IC50 refers to the midpoint of a concentration-inhibition curve. What is called viability, T/C is the result in the treated group divided by that in the control group, in per cent.

“And” between values parts separate entries of the source, which are not always exact repeats. Equal values may be shown once.

This assay relates to LG0703-F498-PDC complex spheroid growth. In words: Anticancer human tumor LG0703-F498-PDC patient-derived lung adenocarcinoma cell line growth inhibition [AhR]. The conditions noted are these: for viability, T/C: stronger effect = lower value. In outline: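 Complex tumor spheroids co-cultured with HUVEC and human MSC stroma; AhR antagonists tested in combination with standard-of-care and investigational agents. Top concentration at or near clinical Cmax (else 10 microM), half-log dilutions; growth expressed as percent test/control.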

The mark [1] stands for this setting: curve of first compound, second compound 0.1 µM.
Where [2] appears, read: curve of first compound, second compound 0.316 µM.
The mark [3] stands for this setting: curve of first compound, second compound 1 µM.
The mark [4] stands for this setting: curve of first compound, second compound 3.16 µM.
Where [5] appears, read: curve of first compound, second compound 10 µM.
Setting [6] is: second compound 0.1 µM, first compound 0.0316 µM.
The mark [7] stands for this setting: second compound 0.1 µM, first compound 0.1 µM.
The mark [8] stands for this setting: second compound 0.316 µM, first compound 0.0316 µM.
Where [9] appears, read: second compound 0.316 µM, first compound 0.1 µM.
Setting [10] is: second compound 1 µM, first compound 0.0316 µM.
[11] abbreviates: second compound 1 µM, first compound 0.1 µM.
The mark [12] stands for this setting: second compound 3.16 µM, first compound 0.0316 µM.
Setting [13] is: second compound 3.16 µM, first compound 0.1 µM.
Setting [14] is: second compound 10 µM, first compound 0.0316 µM.
[15] abbreviates: second compound 10 µM, first compound 0.1 µM.
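Further: luminescence taken as a proxy for viable cell amount.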
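Wherever viability, T/C is given: percent of DMSO vehicle control where 100% means growth equal to vehicle.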

Regarding `CC[C@@]1(O)C(=O)OCc2c1cc1n(c2=O)Cc2cc3c(CN(C)C)c(O)ccc3nc2-1` + CC(CO)NC(=O)c1cc(-c2ccc(Cl)cc2)nn(-c2cnn(C)c2)c1=O, the IC50 reads like this: under setting [1], above 100 nM; under setting [2], above 100 nM; under setting [3], above 100 nM; under setting [4], above 100 nM; under setting [5], above 100 nM. The viability, T/C is, setting by setting: (second compound 0.1 µM, first compound 0.000316 µM) 89%; (second compound 0.1 µM, first compound 0.001 µM) 101%; (second compound 0.1 µM, first compound 0.00316 µM) 86.7%; (second compound 0.1 µM, first compound 0.01 µM) 90.6%; under setting [6], 83.2%; under setting [7], 66.1%. The viability, T/C (second compound 0.316 µM, first compound 0.000316 µM) is 96%; the viability, T/C (second compound 0.316 µM, first compound 0.001 µM) was 99.5%; the viability, T/C (second compound 0.316 µM, first compound 0.00316 µM) is 92.3%; the viability, T/C (second compound 0.316 µM, first compound 0.01 µM) was 80.9%; the viability, T/C under setting [8] is 73.2%; the viability, T/C under setting [9] was 57.2%. For the same compound, the viability, T/C is, setting by setting: (second compound 1 µM, first compound 0.000316 µM) 80.8%; (second compound 1 µM, first compound 0.001 µM) 93.2%; (second compound 1 µM, first compound 0.00316 µM) 84.5%; (second compound 1 µM, first compound 0.01 µM) 77.4%; under setting [10], 78.6%; under setting [11], 61.2%. The viability, T/C is 76% (second compound 3.16 µM, first compound 0.000316 µM); 86.3% (second compound 3.16 µM, first compound 0.001 µM); 90.8% (second compound 3.16 µM, first compound 0.00316 µM); 79.2% (second compound 3.16 µM, first compound 0.01 µM); 58.6% under setting [12]; 52.9% under setting [13]. The viability, T/C (second compound 10 µM, first compound 0.000316 µM) is 79.2%; the viability, T/C (second compound 10 µM, first compound 0.001 µM) is 79.7%; the viability, T/C (second compound 10 µM, first compound 0.00316 µM) is 86.6%; the viability, T/C (second compound 10 µM, first compound 0.01 µM) is 66.5%; the viability, T/C under setting [14] is 63.4%; the viability, T/C under setting [15] was 51.9%.

Take `O=C(c1cc(Cc2n[nH]c(=O)c3ccccc23)ccc1F)N1CCN(C(=O)C2CC2)CC1`: the viability, T/C is 98.7% and 113% and 108% (compound 0.0316 µM); 106% and 89.2% and 102% (compound 0.1 µM); 103% and 91.6% and 85.8% (compound 0.316 µM); 99.9% and 95.1% and 114% (compound 1 µM); 88.3% and 110% and 109% (compound 3.16 µM); 74.2% and 90.4% and 94.5% (compound 10 µM). Also, the IC50 (curve of compound) is above 10000 nM.

Turning to `Nc1ncn(C2CC(O)C(CO)S2)c(=O)n1` (stereo not given) + CC(CO)NC(=O)c1cc(-c2ccc(Cl)cc2)nn(-c2cnn(C)c2)c1=O, the IC50 is above 300 nM under setting [1]; above 300 nM under setting [2]; above 300 nM under setting [3]; above 300 nM under setting [4]; above 300 nM under setting [5]. Moreover, the viability, T/C is 89.3% (second compound 0.1 µM, first compound 0.000949 µM); 96.6% (second compound 0.1 µM, first compound 0.003 µM); 95.6% (second compound 0.1 µM, first compound 0.00949 µM); 102% (second compound 0.1 µM, first compound 0.03 µM); 92.8% (second compound 0.1 µM, first compound 0.0949 µM); 91.8% (second compound 0.1 µM, first compound 0.3 µM). The viability, T/C (second compound 0.316 µM, first compound 0.000949 µM) was 108%; the viability, T/C (second compound 0.316 µM, first compound 0.003 µM) is 93.9%; the viability, T/C (second compound 0.316 µM, first compound 0.00949 µM) is 96.2%; the viability, T/C (second compound 0.316 µM, first compound 0.03 µM) was 103%; the viability, T/C (second compound 0.316 µM, first compound 0.0949 µM) was 97.1%; the viability, T/C (second compound 0.316 µM, first compound 0.3 µM) is 97.8%. The viability, T/C is 82.4% (second compound 1 µM, first compound 0.000949 µM); 92% (second compound 1 µM, first compound 0.003 µM); 90.2% (second compound 1 µM, first compound 0.00949 µM); 76.9% (second compound 1 µM, first compound 0.03 µM); 84.8% (second compound 1 µM, first compound 0.0949 µM); 97.7% (second compound 1 µM, first compound 0.3 µM). For the same compound, the viability, T/C was 80.5% (second compound 3.16 µM, first compound 0.000949 µM); 90.9% (second compound 3.16 µM, first compound 0.003 µM); 78.3% (second compound 3.16 µM, first compound 0.00949 µM); 94.8% (second compound 3.16 µM, first compound 0.03 µM); 96.1% (second compound 3.16 µM, first compound 0.0949 µM); 89.5% (second compound 3.16 µM, first compound 0.3 µM). Moreover, the viability, T/C (second compound 10 µM, first compound 0.000949 µM) is 86.9%; the viability, T/C (second compound 10 µM, first compound 0.003 µM) was 86.7%; the viability, T/C (second compound 10 µM, first compound 0.00949 µM) was 84.9%; the viability, T/C (second compound 10 µM, first compound 0.03 µM) was 86.7%; the viability, T/C (second compound 10 µM, first compound 0.0949 µM) is 81.9%; the viability, T/C (second compound 10 µM, first compound 0.3 µM) is 92.2%.

As for `Nc1ccccc1NC(=O)c1ccc(CNC(=O)OCc2cccnc2)cc1`, the viability, T/C was 90.9% and 98.6% and 92.2% (compound 0.0316 µM); 105% (2×) and 83.9% (compound 0.1 µM); 94.5% and 81.1% and 70.5% (compound 0.316 µM); 55.2% and 47.8% and 24.5% (compound 1 µM); 10.7% and 14.8% and 2.77% (compound 3.16 µM); 0.41% and 1.49% and 0.42% (compound 10 µM). For the same compound, the IC50 (curve of compound) is 1160 nM and 920 nM and 523 nM.

`NS(=O)(=O)OCC1CC(n2ccc3c(NC4CCc5ccccc54)ncnc32)CC1O` (stereo not given) + Cc1ccccc1N=Nc1ccc(NC(=O)c2ccnn2C)c(C)c1: the IC50 is, setting by setting: under setting [1], 7520 nM; under setting [2], 6760 nM; under setting [3], 3060 nM; under setting [4], 1080 nM; under setting [5], 1310 nM. The viability, T/C under setting [6] is 100%; the viability, T/C under setting [7] was 94.1%; the viability, T/C (second compound 0.1 µM, first compound 0.316 µM) is 97.9%; the viability, T/C (second compound 0.1 µM, first compound 1 µM) was 90.8%; the viability, T/C (second compound 0.1 µM, first compound 3.16 µM) was 64.4%; the viability, T/C (second compound 0.1 µM, first compound 10 µM) was 45.2%. The viability, T/C is 102% under setting [8]; 99.8% under setting [9]; 103% (second compound 0.316 µM, first compound 0.316 µM); 81.7% (second compound 0.316 µM, first compound 1 µM); 68.5% (second compound 0.316 µM, first compound 3.16 µM); 41% (second compound 0.316 µM, first compound 10 µM). For the same compound, the viability, T/C is 96% under setting [10]; 102% under setting [11]; 99% (second compound 1 µM, first compound 0.316 µM); 74.4% (second compound 1 µM, first compound 1 µM); 51.5% (second compound 1 µM, first compound 3.16 µM); 38.4% (second compound 1 µM, first compound 10 µM). For the same compound, the viability, T/C by setting is: under setting [12], 93.2%; under setting [13], 99.6%; (second compound 3.16 µM, first compound 0.316 µM) 67%; (second compound 3.16 µM, first compound 1 µM) 55.6%; (second compound 3.16 µM, first compound 3.16 µM) 42.1%; (second compound 3.16 µM, first compound 10 µM) 39.6%. The viability, T/C runs as follows: under setting [14], 100%; under setting [15], 82.7%; (second compound 10 µM, first compound 0.316 µM) 63.7%; (second compound 10 µM, first compound 1 µM) 54.5%; (second compound 10 µM, first compound 3.16 µM) 41.4%; (second compound 10 µM, first compound 10 µM) 32%.

As for `Cc1cncc(-c2nc(NCCc3c[nH]c4ccccc34)c3ncn(C(C)C)c3n2)c1`, the viability, T/C (compound 10 µM) was 0.88% [middle of 19 runs].
